Laboratory results as given in article PMC11249239 (PLOS ONE, 2024).

System: MCF10A normal breast epithelial cells
Test: Cell growth inhibition (CCK8 cytotoxicity assay), MCF10A
Type: cell-based
Details: Homo sapiens, MCF-10A, 48 h treatment, read-out: Average EC50 ± SD, cell growth inhibition

Question: How did the EC50 turn out when O=C(CCCCCCC(=O)Nc1ccccc1)NO [SAHA, reference compound] was run?
Answer: Its EC50 is 10.1 ± 0.982 µM.
